The source made the active and inactive calls. The rule behind the calls is not given here.
What was measured:
HT-29 [1] = experiment: Antiproliferative activity against human HT-29 cells assessed as reduction in cell viability incubated for 24 hrs by MTT assay; type: functional, cell-based; settings: HT-29, 24 h
HCT-116 = experiment: Antiproliferative activity against human HCT-116 cells assessed as reduction in cell viability incubated for 24 hrs by MTT assay; type: functional, cell-based; settings: HCT-116, 24 h
HepG2 = experiment: Antiproliferative activity against human HepG2 cells assessed as reduction in cell viability incubated for 24 hrs by MTT assay; type: functional, cell-based; settings: HepG2, 24 h
MCF7 = experiment: Antiproliferative activity against human MCF7 cells assessed as reduction in cell viability incubated for 24 hrs by MTT assay; type: functional, cell-based; settings: MCF7, 24 h
L02 = experiment: Cytotoxicity against human L02 cells assessed as cell viability incubated for 24 hrs by MTT assay; type: cell-based; settings: L02, 24 h
HK-2 = experiment: Cytotoxicity against human HK2 cells assessed as cell viability incubated for 24 hrs by MTT assay; type: cell-based; settings: HK-2, 24 h
[2] = Inhibition of TrxR in human HT-29 cells incubated for 30 mins in presence of insulin, NADPH and Trx by DTNB reagent based assay; type: cell-based
[3] = Inhibition of TrxR in human HT-29 cells incubated for 60 mins in presence of insulin, NADPH and Trx by DTNB reagent based assay; type: cell-based
[4] = Inhibition of TrxR in human HT-29 cells incubated for 90 mins in presence of insulin, NADPH and Trx by DTNB reagent based assay; type: cell-based
[5] = Inhibition of TrxR (unknown origin) in presence of NADPH by Ellman's method; design: species or system Homo sapiens
[6] = Inhibition of Escherichia coli Trx incubated for 1.5 hrs in presence of DTT and insulin
[7] = Covalent inhibition of TrxR (unknown origin) assessed as covalent bond formation incubated up to 30 mins in presence of NADPH by Ellman's method; design: species or system Homo sapiens
HT-29 [8] = experiment: Inhibition of TrxR in human HT-29 cells incubated for 24 hrs in presence of insulin, NADPH and Trx by DTNB reagent based assay; type: cell-based
[9] = molecular target: T1, Thioredoxin (Homo sapiens) (UniProt P10599); experiment: Inhibition of Trx in human HT-29 cells incubated for 24 hrs in presence of insulin, NADPH and DTT; type: cell-based
T1 sequence (whole entry): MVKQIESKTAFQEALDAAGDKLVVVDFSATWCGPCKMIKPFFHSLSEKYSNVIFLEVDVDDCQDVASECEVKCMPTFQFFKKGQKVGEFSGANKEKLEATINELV

[10] = molecular target: T2, Glutathione reductase, mitochondrial (Homo sapiens) (UniProt P00390); experiment: Inhibition of GR in human HT-29 cells incubated for 24 hrs in presence of GSSG and NADPH; type: cell-based
T2 sequence (whole entry): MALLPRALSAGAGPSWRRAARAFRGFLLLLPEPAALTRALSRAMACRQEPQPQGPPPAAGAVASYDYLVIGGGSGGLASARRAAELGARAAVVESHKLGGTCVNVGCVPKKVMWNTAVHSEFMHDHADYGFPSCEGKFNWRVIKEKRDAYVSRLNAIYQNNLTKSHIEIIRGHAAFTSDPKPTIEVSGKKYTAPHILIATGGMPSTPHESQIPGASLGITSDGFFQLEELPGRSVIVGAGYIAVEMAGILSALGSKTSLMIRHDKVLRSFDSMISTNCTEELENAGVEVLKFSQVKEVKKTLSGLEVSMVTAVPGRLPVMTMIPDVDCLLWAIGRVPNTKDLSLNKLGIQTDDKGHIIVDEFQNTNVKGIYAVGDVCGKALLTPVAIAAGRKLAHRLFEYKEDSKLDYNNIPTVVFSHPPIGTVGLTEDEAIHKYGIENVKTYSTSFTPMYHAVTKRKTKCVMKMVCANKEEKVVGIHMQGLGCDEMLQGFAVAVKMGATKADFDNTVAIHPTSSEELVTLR

HT-29 [11] = experiment: Inhibition of GPx in human HT-29 cells incubated for 24 hrs in presence of GSH, NADPH and GR measured at 10 secs interval for 4 mins; type: cell-based; settings: time 1444.0 min

IC50 (HT-29 [1]) | IC50 (HCT-116) | IC50 (HepG2) | IC50 (MCF7) | SMILES | other results
> 20000 nM | > 20000 nM | > 20000 nM | > 20000 nM | O=c1c(O)c(-c2cc(O)c(O)c(O)c2)oc2cc(O)cc(O)c12 [MYRICETIN] | IC50 (L02): > 20 µM; IC50 (HK-2): > 20 µM; IC50 [2]: 0.93 µM; IC50 [3]: 720 nM; IC50 [4]: 650 nM
– | – | – | – | CC(=O)O[C@H]1C=C([C@H](C)[C@H]2CC(C)=C(C)C(=O)O2)[C@@]2(C)CC[C@H]3[C@@H](C[C@H]4O[C@]45[C@@H](OC(=O)CCC(=O)N(C)C)C=CC(=O)[C@]35C)[C@]12O | IC50 [2]: 3.81 µM; IC50 [3]: 2910 nM; IC50 [4]: 2150 nM
630 nM | 470 nM | 640 nM | 2160 nM | CC(=O)O[C@H]1C=C([C@H](C)[C@H]2CC(C)=C(C)C(=O)O2)[C@@]2(C)CC[C@H]3[C@@H](C[C@H]4O[C@]45[C@@H](OC(=O)CNC(=O)OC(C)(C)C)C=CC(=O)[C@]35C)[C@]12O | –
1080 nM | 570 nM | 1660 nM | 4810 nM | CCC(C)C(NC(=O)OC(C)(C)C)C(=O)O[C@H]1C=CC(=O)[C@]2(C)[C@H]3CC[C@]4(C)C([C@H](C)[C@H]5CC(C)=C(C)C(=O)O5)=C[C@H](OC(C)=O)[C@@]4(O)[C@@H]3C[C@H]3O[C@]132 (stereo partly drawn) | –
720 nM | 1030 nM | 610 nM | 1580 nM | CC(=O)O[C@H]1C=C([C@H](C)[C@H]2CC(C)=C(C)C(=O)O2)[C@@]2(C)CC[C@H]3[C@@H](C[C@H]4O[C@]45[C@@H](OC(=O)/C=C/c4ccc(F)cc4)C=CC(=O)[C@]35C)[C@]12O | –
370 nM | 160 nM | 310 nM | 610 nM | CC(=O)O[C@H]1C=C([C@H](C)[C@H]2CC(C)=C(C)C(=O)O2)[C@@]2(C)CC[C@H]3[C@@H](C[C@H]4O[C@]45[C@@H](OC(=O)/C=C/C(=O)N4CCCCC4)C=CC(=O)[C@]35C)[C@]12O | –
750 nM | 430 nM | 690 nM | 1210 nM | CCN(CC)C(=O)O[C@H]1C=CC(=O)[C@]2(C)[C@H]3CC[C@]4(C)C([C@H](C)[C@H]5CC(C)=C(C)C(=O)O5)=C[C@H](OC(C)=O)[C@@]4(O)[C@@H]3C[C@H]3O[C@]132 | –
1790 nM | 1950 nM | 2810 nM | 4330 nM | CC(=O)O[C@H]1C=C([C@H](C)[C@H]2CC(C)=C(C)C(=O)O2)[C@@]2(C)CC[C@H]3[C@@H](C[C@H]4O[C@]45[C@@H](OC(=O)C(C)NC(=O)OC(C)(C)C)C=CC(=O)[C@]35C)[C@]12O (stereo partly drawn) | –
1120 nM | 1340 nM | 1450 nM | 2110 nM | C=C(C)C(=O)O[C@H]1C=CC(=O)[C@]2(C)[C@H]3CC[C@]4(C)C([C@H](C)[C@H]5CC(C)=C(C)C(=O)O5)=C[C@H](OC(C)=O)[C@@]4(O)[C@@H]3C[C@H]3O[C@]132 | –
800 nM | 600 nM | 1570 nM | 3050 nM | CC(=O)O[C@H]1C=C([C@H](C)[C@H]2CC(C)=C(C)C(=O)O2)[C@@]2(C)CC[C@H]3[C@@H](C[C@H]4O[C@]45[C@@H](OC(C)=O)C=CC(=O)[C@]35C)[C@]12O | –
250 nM | 200 nM | 290 nM | 380 nM | CC(=O)O[C@H]1C=C([C@H](C)[C@H]2CC(C)=C(C)C(=O)O2)[C@@]2(C)CC[C@H]3[C@@H](C[C@H]4O[C@]45[C@@H](OC(=O)/C=C/C(=O)N4CCCC4)C=CC(=O)[C@]35C)[C@]12O | –
1420 nM | 1350 nM | 1520 nM | 2620 nM | C/C=C/C=C/C(=O)O[C@H]1C=CC(=O)[C@]2(C)[C@H]3CC[C@]4(C)C([C@H](C)[C@H]5CC(C)=C(C)C(=O)O5)=C[C@H](OC(C)=O)[C@@]4(O)[C@@H]3C[C@H]3O[C@]132 | –
1780 nM | 1970 nM | 2370 nM | 1790 nM | CCN(C)C(=O)O[C@H]1C=CC(=O)[C@]2(C)[C@H]3CC[C@]4(C)C([C@H](C)[C@H]5CC(C)=C(C)C(=O)O5)=C[C@H](OC(C)=O)[C@@]4(O)[C@@H]3C[C@H]3O[C@]132 | –
2480 nM | 2370 nM | 2850 nM | 6320 nM | CC(=O)O[C@H]1C=C([C@H](C)[C@H]2CC(C)=C(C)C(=O)O2)[C@@]2(C)CC[C@H]3[C@@H](C[C@H]4O[C@]45[C@@H](O)C=CC(=O)[C@]35C)[C@]12O | IC50 (L02): 8.21 µM; IC50 (HK-2): 6.41 µM; IC50 [5]: 2640 nM; IC50 [6]: > 2500 nM; IC50 [2]: 4.92 µM; IC50 [3]: 3350 nM; IC50 [4]: 2640 nM; Ki [7]: 9.12 µM; inhibition (HT-29 [8]): Active; inhibition [9]: Active; inhibition [10]: Active; inhibition (HT-29 [11]): Active
> 20000 nM | > 20000 nM | > 20000 nM | > 20000 nM | CC(=O)O[C@H]1C=C([C@H](C)[C@H]2CC(C)=C(C)C(=O)O2)[C@@]2(C)CC[C@H]3[C@@H](C[C@H]4O[C@]45[C@@H](O)C(N(C)CC(=O)O)CC(=O)[C@]35C)[C@]12O (stereo partly drawn) | –
4050 nM | 5840 nM | 5760 nM | 8180 nM | CC(=O)O[C@H]1C=C([C@H](C)[C@H]2CC(C)=C(C)C(=O)O2)[C@@]2(C)CC[C@H]3[C@@H](C[C@H]4O[C@]45[C@@H](OC(=O)CCc4ccccc4)C=CC(=O)[C@]35C)[C@]12O | –
230 nM | 250 nM | 240 nM | 280 nM | CCOC(=O)/C=C/C(=O)O[C@H]1C=CC(=O)[C@]2(C)[C@H]3CC[C@]4(C)C([C@H](C)[C@H]5CC(C)=C(C)C(=O)O5)=C[C@H](OC(C)=O)[C@@]4(O)[C@@H]3C[C@H]3O[C@]132 | –
780 nM | 330 nM | 520 nM | 1060 nM | C=CC(=O)O[C@H]1C=CC(=O)[C@]2(C)[C@H]3CC[C@]4(C)C([C@H](C)[C@H]5CC(C)=C(C)C(=O)O5)=C[C@H](OC(C)=O)[C@@]4(O)[C@@H]3C[C@H]3O[C@]132 | IC50 [2]: 3.91 µM; IC50 [3]: 2850 nM; IC50 [4]: 2060 nM
1120 nM | 890 nM | 1230 nM | 2140 nM | CC(=O)O[C@H]1C=C([C@H](C)[C@H]2CC(C)=C(C)C(=O)O2)[C@@]2(C)CC[C@H]3[C@@H](C[C@H]4O[C@]45[C@@H](OC(=O)N4CCCC4)C=CC(=O)[C@]35C)[C@]12O | –
990 nM | 780 nM | 670 nM | 3890 nM | CC(=O)O[C@H]1C=C([C@H](C)[C@H]2CC(C)=C(C)C(=O)O2)[C@@]2(C)CC[C@H]3[C@@H](C[C@H]4O[C@]45[C@@H](OC(=O)N4CCOCC4)C=CC(=O)[C@]35C)[C@]12O | –
430 nM | 380 nM | 530 nM | 630 nM | CC(=O)O[C@H]1C=C([C@H](C)[C@H]2CC(C)=C(C)C(=O)O2)[C@@]2(C)CC[C@H]3[C@@H](C[C@H]4O[C@]45[C@@H](OC(=O)/C=C/c4cccs4)C=CC(=O)[C@]35C)[C@]12O | –

— ChEMBL document CHEMBL4665792 (J Med Chem, 2020)
